Experimental data published in publication PMC7551609 (Viruses, 2020).
“Also recorded” adds a separate entry of the source. Counter-ions that a name gives are not always drawn. Like-named read-outs stand apart in the source and are kept apart here.

How the values were obtained:
ZIKV MR-766 [1] = conditions: ZIKV MR-766, Vero cells; cited from earlier work
ZIKV DAKAR B11514 = test system: ZIKV DAKAR B11514; set-up: method as in ref 32, 34 = [32]; conditions: ZIKV DAKAR B11514, Vero cells; cited from earlier work
ZIKV Paraiba/2015 [2] = assay: Viral inhibition assay, pre-treatment (prophylactic), Vero cells; format: cell-based, Zika virus; conditions: for MIC / EC50: Zika virus; for MIC: read-out: Pre-treatment MIC (maximum effective concentration); for EC50: ZIKV Paraiba/2015, Vero cells, pre-treatment 12 h before infection
ZIKV PRVABC59 = conditions: ZIKV PRVABC59, Vero cells; cited from earlier work
ZIKV MR-766 strain = assay: Viral inhibition assay, post-treatment, old World strain, Vero cells; format: cell-based, Zika virus; conditions: for EC50 / MIC: Zika virus; for EC50: old World ZIKV MR-766, Vero cells, post-treatment; for MIC: old World ZIKV MR-766 strain, read-out: MR766 MIC (maximum effective concentration)
ZIKV Paraiba/2015 [3] = assay: Viral inhibition assay, post-infection treatment, Vero cells; format: cell-based, Zika virus; conditions: for EC50: ZIKV Paraiba/2015, Vero cells, post-infection treatment, 36 h; for MIC: read-out: Post-treatment MIC (maximum effective concentration)
ZIKV PRVABC59 strain = assay: Viral inhibition assay, post-treatment, new World strain, Vero cells; format: cell-based, Zika virus; conditions: for EC50 / MIC: Zika virus; for EC50: new World ZIKV PRVABC59, Vero cells, post-treatment, 48 h; for MIC: new World ZIKV PRVABC59, read-out: PRVABC59 MIC (maximum effective concentration)
[4] = XTT cell proliferation in A549 cells; format: cell-based, human; conditions: human, highest concentration used 50.00 µM, sentence also cites [17]
ZIKV KX197192.1 strain = test system: ZIKV KX197192.1 strain; set-up: method as in ref 32, 34 = [32]; conditions: Huh7 cells; cited from earlier work
ZIKV Paraiba/2015 [5] = assay: Growth kinetics inhibition assay (infectious viral progeny), Vero cells; format: cell-based, Zika virus
[6] = MTT cell viability in A549 cells; format: cell-based, human; conditions: human, highest concentration used 50.00 µM, sentence also cites [17]
ZIKV Paraiba/2015 [7] = assay: Viral inhibition assay, post-treatment, human A549 cells; format: cell-based, Zika virus; conditions: for inhibitor category based on SI-MTT and SI-XTT: Paraiba/2015, A549 cells; for MIC / EC50: Zika virus; for MIC: in Homo sapiens, read-out: A549 cells MIC (maximum effective concentration); for EC50: ZIKV Paraiba/2015, A549 cells, post-treatment, 36 h
ZIKV Paraiba/2015 [8] = assay: Viral inhibition assay, co-treatment, Vero cells; format: cell-based, Zika virus; conditions: for Co-treatment MIC (maximum effective concentration): Vero cells, ZIKV Paraiba/2015, co-treatment
[9] = XTT cell proliferation assay in Vero cells; format: cell-based, African green monkey; conditions: African green monkey, confluent monolayers; non-infected Vero cells, 36 h post-treatment
[10] = MTT cell viability assay in Vero cells; format: cell-based, African green monkey; conditions: African green monkey, confluent monolayers; non-infected Vero cells, 36 h post-treatment
ZIKV MR-766 [11] = conditions: ZIKV MR-766, Vero cells, pre-treatment conditions; cited from earlier work
ZIKV MEX_I_7 strain = conditions: ZIKV MEX_I_7, Huh7, HeLa and HAEC cells; cited from earlier work
ZIKV SL1602 strain = conditions: ZIKV SL1602, Vero cells; cited from earlier work
ZIKV-MEX-2-81 = conditions: ZIKV MEX-2-81, U2OS cells; cited from earlier work
[12] = test system: ZIKV cocktail of MR-766, FSS13025, and MEX-2-81 strains; conditions: JEG-3 and HBME cells; cited from earlier work
[13] = test system: ZIKV cocktail of MR-766, FSS13025, and MEX-2-81; conditions: JEG-3 cells, ZIKV cocktail of MR-766, FSS13025, MEX-2-81; cited from earlier work
ZIKV FB-GWUH-2016 = test system: ZIKV FB-GWUH-2016; set-up: method as in ref 27 = [27]; conditions: ZIKV FB-GWUH-2016, RPE cells; cited from earlier work
[14] = pre-treatment, Paraiba/2015, Vero
[15] = post-treatment, Paraiba/2015, Vero
[16] = 0.1, 1, 10 EC50, all time points (24, 48, 72 h post-treatment), MOI 0.1
[17] = co-treatment, Paraiba/2015, Vero

Compound	EC50 (ZIKV MR-766 [1]) [µM]	MIC (ZIKV Paraiba/2015 [2]) [µM]	EC50 (ZIKV Paraiba/2015 [2]) [µM]	inhibitor category based on SI-XTT (ZIKV Paraiba/2015 [2]; [14])	EC50 (ZIKV MR-766 strain) [µM]	MIC (ZIKV MR-766 strain) [µM]	EC50 (ZIKV Paraiba/2015 [3]) [µM]	EC50 (ZIKV Paraiba/2015 [3]; Zika virus, Vero) [µM]	MIC (ZIKV Paraiba/2015 [3]; Zika virus) [µM]	inhibitor category based on SI-MTT and SI-XTT (ZIKV Paraiba/2015 [3]; [15])	EC50 (ZIKV PRVABC59 strain) [µM]	MIC (ZIKV PRVABC59 strain) [µM]	CC50 [4] [µM]	CC50 [6] [µM]	inhibitor category based on SI-MTT and SI-XTT (ZIKV Paraiba/2015 [7])	MIC (ZIKV Paraiba/2015 [7]) [µM]	EC50 (ZIKV Paraiba/2015 [7]) [µM]	Co-treatment MIC (maximum effective concentration) (ZIKV Paraiba/2015 [8]) [µM]	CC50 at 36 h [9] [µM]	CC50 at 36 h [10] [µM]	further results
O=c1cnn([C@@H]2O[C@H](CO)[C@@H](O)[C@H]2O)c(=O)[nH]1 [Azauridine, 6-azauridine]	0.98	> 100	64.5	weakest	0.76	< 3.7	4.29	3.72	> 100	moderate to weak	1.46	< 11.1	> 50	> 50	moderate	< 1.23	0.44	< 100.00	> 1350	156	EC50 (ZIKV DAKAR B11514): 1.5 µM; inhibitor category based on SI-MTT and SI-XTT (ZIKV Paraiba/2015 [2]; [14]): weak; EC50 (ZIKV PRVABC59): 0.61 µM; inhibitor category based on SI-MTT and SI-XTT (ZIKV MR-766 strain; ZIKV MR-766, Vero): moderate; inhibitor category based on SI-MTT and SI-XTT (ZIKV PRVABC59 strain; ZIKV PRVABC59, Vero): moderate; EC50 (ZIKV KX197192.1 strain): 2.3 µM; effect on production of infectious viral progeny (viral titers) (ZIKV Paraiba/2015 [5]; [16]): dose-dependent inhibitory effect; inhibitor category based on SI-MTT (ZIKV Paraiba/2015 [8]; [17]): weak; inhibitor category based on SI-MTT and SI-XTT (ZIKV Paraiba/2015 [8]; [17]): weak
Cc1c(-c2ccc(-c3ccccc3F)cc2)nc2ccc(F)cc2c1C(=O)O [Brequinar, Brequinar sodium salt hydrate]	0.08	> 100	42.5	weakest and weak	0.05	< 0.13	1.51	1.03	> 100	most potent; also recorded: potent	0.08	< 0.41	> 50	> 50	Potent	< 0.04	0.02	< 33.30	> 1350	238	inhibitor category based on SI-MTT (ZIKV Paraiba/2015 [2]; [14]): moderate; inhibitor category based on SI-MTT and SI-XTT (ZIKV MR-766 strain; ZIKV MR-766, Vero): most potent; also recorded: potent; inhibitor category based on SI-MTT and SI-XTT (ZIKV PRVABC59 strain; ZIKV PRVABC59, Vero): potent; EC50 (ZIKV MR-766 [11]): 0.3 µM; effect on production of infectious viral progeny (viral titers) (ZIKV Paraiba/2015 [5]; [16]): dose-dependent inhibitory effect; effect on production of infectious viral progeny (viral titers) (ZIKV Paraiba/2015 [5]; 10 EC50, 24 and 48 h post-treatment): Complete inhibition; inhibitor category based on SI-MTT and SI-XTT (ZIKV Paraiba/2015 [8]; [17]): moderate
COc1c(C)c2c(c(O)c1C/C=C(\C)CCC(=O)O)C(=O)OC2 [Mycophenolic acid]	0.11	> 100	7.58	potent	0.15	< 1.23	4.26	4.34	> 100	moderate to weak	0.22	< 1.23	> 50	> 50	weak	< 11.1	0.65	< 11.10	> 1350	275	inhibitor category based on SI-MTT (ZIKV Paraiba/2015 [2]; [14]): Potent; also recorded: moderate; EC50 (ZIKV PRVABC59): 0.14 µM; inhibitor category based on SI-MTT and SI-XTT (ZIKV MR-766 strain; ZIKV MR-766, Vero): most potent; also recorded: potent; EC50 (ZIKV MEX_I_7 strain): < 2 µM; inhibitor category based on SI-MTT and SI-XTT (ZIKV PRVABC59 strain; ZIKV PRVABC59, Vero): potent; EC50 (ZIKV SL1602 strain): 0.42 µM; EC50 (ZIKV-MEX-2-81): 0.4 µM; effect on production of infectious viral progeny (viral titers) (ZIKV Paraiba/2015 [5]; [16]): dose-dependent inhibitory effect; inhibitor category based on SI-MTT (ZIKV Paraiba/2015 [8]; [17]): weak; inhibitor category based on SI-MTT and SI-XTT (ZIKV Paraiba/2015 [8]; [17]): weak; EC50 [12]: 0.1 µM
COC1=CC(c2cc3ccccc3[nH]2)=N/C1=C\c1[nH]c(C)cc1C [Obatoclax, Obatoclax mesylate]	–	< 11.1	2.96	–	0.37	< 1.23	0.63	0.58	< 0.01	moderate to weak	0.41	< 1.23	> 50	> 50	weak	< 1.23	0.64	< 3.70	60.4	17.6	inhibitor category based on SI-MTT (ZIKV Paraiba/2015 [2]; [14]): moderate; inhibitory activity [13]: did not exhibit inhibitory activity; inhibitor category based on SI-MTT (ZIKV MR-766 strain; ZIKV MR-766, Vero): weak; inhibitor category based on SI-XTT (ZIKV MR-766 strain; ZIKV MR-766, Vero): moderate; inhibitor category based on SI-MTT (ZIKV Paraiba/2015 [3]; [15]): weak; inhibitor category based on SI-XTT (ZIKV Paraiba/2015 [3]; [15]): potent; inhibitor category based on SI-MTT (ZIKV PRVABC59 strain; ZIKV PRVABC59, Vero): weak; inhibitor category based on SI-XTT (ZIKV PRVABC59 strain; ZIKV PRVABC59, Vero): potent; EC50 (ZIKV FB-GWUH-2016): 0.04 µM; effect on production of infectious viral progeny (viral titers) (ZIKV Paraiba/2015 [5]; 1 EC50, all the analyzed times, may be caused by toxicity): Complete inhibition; inhibitor category based on SI-MTT (ZIKV Paraiba/2015 [8]; [17]): Potent; inhibitor category based on SI-XTT (ZIKV Paraiba/2015 [8]; [17]): potent
